According to patent US11752138B2 (VANDERBILT UNIVERSITY, priority 2020, dated 2023):

The compounds below were run against Human LDHA (Homo sapiens (Human), UniProt P00338) (assay: human LDHA primary biochemical assay (Example 1)). Details: biochemical LDHA inhibitory activity, assay of Example 1.
Text: This example describes a human LDHA primary biochemical assay employed in the characterization of a compound of Formula I in an embodiment of the dislcosure.
Test compounds were placed in a Greiner Bio-One (Monroe, N.C.) 1536-well black solid bottom assay plate. 200 millimolar (mM) Tris HCl, pH 7.4, 100 micromolar (μM) EDTA and 0.01% TWEEN-20™, final concentration, was used as the assay buffer. The LDHA reagent was 2 nanomolar (nM) Human LDHA (Meridian Life Science, Inc., Memphis, Tenn.), final concentration, in assay buffer. The substrate reagent was 0.06 mM NADH and 0.2 mM sodium pyruvate, final concentration, in assay buffer. The resazurin/diaphorase coupling reagent was 0.037 mM resazurin and 0.133 milligrams per milliliter (mg/mL) diaphorase, final concentration, in assay buffer. The inhibition of LDHA activity was measured by fluorescence emission. […]

Structure (SMILES)	IC50 [µM]
Cc1cc(-c2cc(-c3nn(-c4nc(C(=O)O)cs4)c(CC4CC4)c3Cc3ccc(S(N)(=O)=O)c(F)c3)ccc2F)ccc1C(C)C [Compound 213, 2-[5-(cyclopropylmethyl)-3-[4-fluoro-3-(4-isopropyl-3-methylphenyl)phenyl]-4-[(3-fluoro-4-sulfamoylphenyl)methyl]pyrazol-1-yl]-1,3-thiazole-4-carboxylic acid]	< 0.1
Cc1ncc(-c2cccc(-c3nn(-c4nc(C(=O)O)cs4)c(CC4CC4)c3Cc3ccc(S(N)(=O)=O)c(F)c3)c2)cn1 [Compound 214, 2-[5-(cyclopropylmethyl)-4-[(3-fluoro-4-sulfamoylphenyl)methyl]-3-[3-(2-methylpyrimidin-5-yl)phenyl]pyrazol-1-yl]-1,3-thiazole-4-carboxylic acid]	< 0.1
CC(C)c1cnc(-c2cccc(-c3nn(-c4nc(C(=O)O)cs4)c(CC4CC4)c3Cc3ccc(S(N)(=O)=O)c(F)c3)c2)s1 [Compound 215, 2-[5-(cyclopropylmethyl)-4-[(3-fluoro-4-sulfamoylphenyl)methyl]-3-[3-(5-isopropyl-1,3-thiazol-2-yl)phenyl]pyrazol-1-yl]-1,3-thiazole-4-carboxylic acid]	< 0.1
Cc1cnc(-c2cccc(-c3nn(-c4nc(C(=O)O)cs4)c(CC4CC4)c3Cc3ccc(S(N)(=O)=O)c(F)c3)c2)nc1 [Compound 217, 2-[5-(cyclopropylmethyl)-4-[(3-fluoro-4-sulfamoylphenyl)methyl]-3-[3-(5-methylpyrimidin-2-yl)phenyl]pyrazol-1-yl]-1,3-thiazole-4-carboxylicacid]	< 0.1
NS(=O)(=O)c1ccc(Cc2c(-c3cccc(-c4ccc(C(F)(F)F)cc4)c3)nn(-c3nc(C(=O)O)cs3)c2CC2CC2)cc1F [Compound 219, 2-(5-(cyclopropylmethyl)-4-(3-fluoro-4-sulfamoylbenzyl)-3-(4′-(trifluoromethyl)-[1,1′-biphenyl]-3-yl)-1H-pyrazol-1-yl)thiazole-4-carboxylic acid]	< 0.1

Results, then the compound that gave them:

IC50 [µM]	Structure (SMILES)
< 0.1	N#Cc1ccc(-c2cc(-c3nn(-c4nc(C(=O)O)cs4)c(CC4CC4)c3Cc3ccc(S(N)(=O)=O)c(F)c3)ccc2F)cc1 [Compound 201, 2-(3-(4′-cyano-6-fluoro-[1,1′-biphenyl]-3-yl)-5-(cyclopropylmethyl)-4-(3-fluoro-4-sulfamoylbenzyl)-1H-pyrazol-1-yl)thiazole-4-carboxylic acid]
< 0.1	NS(=O)(=O)c1ccc(Cc2c(-c3ccc(F)c(N4CCCC4=O)c3)nn(-c3nc(C(=O)O)cs3)c2CC2CC2)cc1F [Compound 202, 2-(5-(cyclopropylmethyl)-3-(4-fluoro-3-(2-oxopyrrolidin-1-yl)phenyl)-4-(3-fluoro-4-sulfamoylbenzyl)-1H-pyrazol-1-yl)thiazole-4-carboxylic acid]
< 0.1	Cc1ccc(-c2cccc(-c3nn(-c4nc(C(=O)O)cs4)c(CC4CC4)c3Cc3ccc(S(N)(=O)=O)c(F)c3)c2)nc1 [Compound 203, 2-(5-(cyclopropylmethyl)-4-(3-fluoro-4-sulfamoylbenzyl)-3-(3-(5-methylpyridin-2-yl)phenyl)-1H-pyrazol-1-yl)thiazole-4-carboxylic acid]
< 0.1	Cc1ccc(-c2cccc(-c3nn(-c4nc(C(=O)O)cs4)c(CC4CC4)c3Cc3ccc(S(N)(=O)=O)c(F)c3)c2)cn1 [Compound 204, 2-(5-(cyclopropylmethyl)-4-(3-fluoro-4-sulfamoylbenzyl)-3-(3-(6-methylpyridin-3-yl)phenyl)-1H-pyrazol-1-yl)thiazole-4-carboxylic acid]
< 0.1	CC(C)c1ccc(-c2cncc(-c3nn(-c4nc(C(=O)O)cs4)c(CC4CC4)c3Cc3ccc(S(N)(=O)=O)c(F)c3)c2)cc1 [Compound 210, 2-[5-(cyclopropylmethyl)-4-[(3-fluoro-4-sulfamoylphenyl)methyl]-3-[5-(4-isopropylphenyl)pyridin-3-yl]pyrazol-1-yl]-1,3-thiazole-4-carboxylic acid]
